Test results reported in PubChem BioAssay (NCI).
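Protocol summary: plate cells (96-well), add compound at 5 concentrations, incubate 48 h, interpolate endpoints linearly. Abbreviation: GI50, concentration required for 50% inhibition of growth. TGI marks complete inhibition of growth.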 Where a SMILES comes first, the peptide text is derived from it. [ ]: non-standard residue; d: D form. NMeY = CN[C@@H](Cc1ccc(O)cc1)C(=O)O; dNMeF = CN[C@H](Cc1ccccc1)C(=O)O; Sar = CNCC(=O)O

Tests used:
Assay in all cases: NCI tumour cell line growth inhibition, 48 h
[1] = tested on: NCI-H460 lung
[2] = tested on: HCT-15 colon
[3] = tested on: A498 renal
[4] = tested on: OVCAR-5 ovarian
[5] = tested on: HOP-62 NSCLC
[6] = tested on: IGROV1 ovarian
[7] = tested on: K-562 leukemia
[8] = tested on: U251 CNS
[9] = tested on: PC-3 prostate
[10] = tested on: COLO 205 colon
[11] = tested on: OVCAR-8 ovarian
[12] = tested on: SK-MEL-2 melanoma
[13] = tested on: SW-620 colon
[14] = tested on: MDA-MB-435
[15] = tested on: UACC-257 melanoma
[16] = tested on: RPMI-8226 leukemia
[17] = tested on: SNB-75 CNS
[18] = tested on: MALME-3M melanoma
[19] = tested on: OVCAR-4 ovarian
[20] = tested on: NCI-H522 lung
[21] = tested on: SN12C renal
[22] = tested on: HCT-116 colon
[23] = tested on: MOLT-4 leukemia
[24] = tested on: RXF 393 renal
[25] = tested on: MCF7 breast
[26] = tested on: CAKI-1 renal
[27] = tested on: NCI/ADR-RES ovarian
[28] = tested on: 786-0 renal
[29] = tested on: SNB-19 CNS
[30] = tested on: SK-MEL-5 melanoma
[31] = tested on: SK-MEL-28 melanoma
[32] = tested on: MDA-MB-231 breast
[33] = tested on: A549 NSCLC
[34] = tested on: HS 578T breast
[35] = tested on: SF-539 CNS
[36] = tested on: BT-549 breast
[37] = tested on: HT29 colon
[38] = tested on: NCI-H226 lung
[39] = tested on: CCRF-CEM leukemia
[40] = tested on: HOP-92 NSCLC
[41] = tested on: UACC-62 melanoma
[42] = tested on: EKVX NSCLC
[43] = tested on: NCI-H23 lung
[44] = tested on: OVCAR-3 ovarian
[45] = tested on: LOX IMVI melanoma
[46] = tested on: SR leukemia
[47] = tested on: SF-268 CNS
[48] = tested on: KM12 colon
[49] = tested on: T-47D breast
[50] = tested on: M14 melanoma
[51] = tested on: ACHN renal
[52] = tested on: UO-31 renal
[53] = tested on: DU-145 prostate
[54] = tested on: HCC-2998 colon
[55] = tested on: HL-60(TB) leukemia
[56] = tested on: TK-10 renal
[57] = tested on: SK-OV-3 ovarian
[58] = tested on: SF-295 CNS

Compound: CC1(C)CC(OCCCC[P+](c2ccccc2)(c2ccccc2)c2ccccc2)CC(C)(C)N1O
- GI50 [1]: 282 nM
- TGI [1]: 1520 nM
- GI50 [2]: 2780 nM
- TGI [2]: 9120 nM
- GI50 [3]: 644 nM
- TGI [3]: 3890 nM
- GI50 [4]: 481 nM
- TGI [4]: 8420 nM
- GI50 [5]: 440 nM
- TGI [5]: 2100 nM
- GI50 [6]: 477 nM
- TGI [6]: 2020 nM
- GI50 [7]: 186 nM
- TGI [7]: 18100 nM
- GI50 [8]: 247 nM
- TGI [8]: 1540 nM
- GI50 [9]: 205 nM
- TGI [9]: 4040 nM
- GI50 [10]: 202 nM
- TGI [10]: 402 nM
- GI50 [11]: 333 nM
- TGI [11]: 2610 nM
- GI50 [12]: 272 nM
- TGI [12]: 641 nM
- GI50 [13]: 337 nM
- TGI [13]: 4860 nM
- GI50 [14]: 301 nM
- TGI [14]: 1150 nM
- GI50 [15]: 307 nM
- TGI [15]: 977 nM
- GI50 [16]: 19 nM
- TGI [16]: 133 nM
- GI50 [17]: 331 nM
- TGI [17]: 3610 nM
- GI50 [18]: 317 nM
- TGI [18]: 1070 nM
- GI50 [19]: 320 nM
- TGI [19]: 4320 nM
- GI50 [20]: 275 nM
- TGI [20]: 1160 nM
- GI50 [21]: 306 nM
- TGI [21]: 1180 nM
- GI50 [22]: 238 nM
- TGI [22]: 3610 nM
- GI50 [23]: 340 nM
- TGI [23]: 4120 nM
- GI50 [24]: 518 nM
- TGI [24]: 2080 nM
- GI50 [25]: 203 nM
- TGI [25]: 1200 nM
- GI50 [26]: 1190 nM
- TGI [26]: 4010 nM
- GI50 [27]: 5560 nM
- TGI [27]: 21500 nM
- GI50 [28]: 738 nM
- TGI [28]: 2230 nM
- GI50 [29]: 317 nM
- TGI [29]: 2200 nM
- GI50 [30]: 163 nM
- TGI [30]: 358 nM
- GI50 [31]: 628 nM
- TGI [31]: 2020 nM
- GI50 [32]: 252 nM
- TGI [32]: 832 nM
- GI50 [33]: 370 nM
- TGI [33]: 11500 nM
- GI50 [34]: 229 nM
- TGI [34]: 1030 nM
- GI50 [35]: 327 nM
- TGI [35]: 10200 nM
- GI50 [36]: 274 nM
- TGI [36]: 1040 nM
- GI50 [37]: 340 nM
- TGI [37]: 7260 nM
- GI50 [38]: 472 nM
- TGI [38]: 10600 nM
- GI50 [39]: 246 nM
- TGI [39]: 1520 nM
- GI50 [40]: 199 nM
- TGI [40]: 903 nM
- GI50 [41]: 392 nM
- TGI [41]: 1640 nM
- GI50 [42]: 256 nM
- TGI [42]: 4370 nM
- GI50 [43]: 254 nM
- TGI [43]: 1950 nM
- GI50 [44]: 241 nM
- TGI [44]: 871 nM
- GI50 [45]: 317 nM
- TGI [45]: 1250 nM
- GI50 [46]: 273 nM
- TGI [46]: 1540 nM
- GI50 [47]: 412 nM
- TGI [47]: 1880 nM
- GI50 [48]: 284 nM
- TGI [48]: 966 nM
- GI50 [49]: 143 nM
- TGI [49]: 1230 nM
- GI50 [50]: 433 nM
- TGI [50]: 1900 nM
- GI50 [51]: 2390 nM
- TGI [51]: 7280 nM
- GI50 [52]: 2660 nM
- TGI [52]: 8290 nM
- GI50 [53]: 409 nM
- TGI [53]: 7750 nM
- GI50 [54]: 287 nM
- TGI [54]: 3190 nM
- GI50 [55]: 125 nM
- TGI [55]: 421 nM
- GI50 [56]: 361 nM
- TGI [56]: 2360 nM
- GI50 [57]: 302 nM
- TGI [57]: 787 nM
- GI50 [58]: 337 nM
- TGI [58]: 1390 nM

Compound: CC[C@H](C)[C@@H]1NC(=O)[C@H](Cc2ccc(O)cc2)N(C)C(=O)[C@H](Cc2ccccc2)NC(=O)CN(C)C(=O)[C@@H]2CCCN2C(=O)[C@@H](Cc2ccccc2)N(C)C(=O)[C@H](CC(C)C)NC1=O (cyclo(F[NMeY]IL[dNMeF]P[Sar]))
- GI50 [1]: 184 nM
- TGI [1]: 1940 nM
- GI50 [2]: 4100 nM
- TGI [2]: 19800 nM
- GI50 [3]: 695 nM
- TGI [3]: 6110 nM
- GI50 [4]: 299 nM
- TGI [4]: 8090 nM
- GI50 [5]: 296 nM
- TGI [5]: 5840 nM
- GI50 [6]: 210 nM
- TGI [6]: 5200 nM
- GI50 [7]: 262 nM
- TGI [7]: 31400 nM
- GI50 [8]: 146 nM
- TGI [8]: 7260 nM
- GI50 [9]: 280 nM
- TGI [9]: 6210 nM
- GI50 [10]: 185 nM
- TGI [10]: 3300 nM
- GI50 [11]: 352 nM
- TGI [11]: 12800 nM
- GI50 [12]: 327 nM
- TGI [12]: 1910 nM
- GI50 [13]: 199 nM
- TGI [13]: 5320 nM
- GI50 [14]: 205 nM
- TGI [14]: 1700 nM
- GI50 [15]: 267 nM
- TGI [15]: 3050 nM
- GI50 [16]: 229 nM
- TGI [16]: 1200 nM
- GI50 [17]: 206 nM
- TGI [17]: 2780 nM
- GI50 [18]: 164 nM
- TGI [18]: 1810 nM
- GI50 [19]: 306 nM
- TGI [19]: 3990 nM
- GI50 [20]: 287 nM
- TGI [20]: 3950 nM
- GI50 [21]: 139 nM
- TGI [21]: 5790 nM
- GI50 [22]: 155 nM
- TGI [22]: 10500 nM
- GI50 [23]: 314 nM
- TGI [23]: 10600 nM
- GI50 [24]: 519 nM
- TGI [24]: 3270 nM
- GI50 [25]: 103 nM
- TGI [25]: 2690 nM
- GI50 [26]: 805 nM
- TGI [26]: 11300 nM
- GI50 [27]: 14000 nM
- TGI [27]: > 100000 nM
- GI50 [28]: 467 nM
- TGI [28]: 5750 nM
- GI50 [29]: 146 nM
- TGI [29]: 6920 nM
- GI50 [30]: 485 nM
- TGI [30]: 1850 nM
- GI50 [31]: 194 nM
- TGI [31]: 1460 nM
- GI50 [32]: 331 nM
- TGI [32]: 4280 nM
- GI50 [33]: 301 nM
- TGI [33]: 4290 nM
- GI50 [34]: 137 nM
- TGI [34]: 1250 nM
- GI50 [35]: 287 nM
- TGI [35]: 2610 nM
- GI50 [36]: 407 nM
- TGI [36]: 4510 nM
- GI50 [37]: 243 nM
- TGI [37]: 7200 nM
- GI50 [38]: 768 nM
- TGI [38]: 8180 nM
- GI50 [39]: 279 nM
- TGI [39]: 11700 nM
- GI50 [40]: 198 nM
- TGI [40]: 4830 nM
- GI50 [41]: 367 nM
- TGI [41]: 2750 nM
- GI50 [42]: 301 nM
- TGI [42]: 6470 nM
- GI50 [43]: 197 nM
- TGI [43]: 5950 nM
- GI50 [44]: 248 nM
- TGI [44]: 3390 nM
- GI50 [45]: 197 nM
- TGI [45]: 1890 nM
- GI50 [46]: 123 nM
- TGI [46]: 6280 nM
- GI50 [47]: 217 nM
- TGI [47]: 6940 nM
- GI50 [48]: 271 nM
- TGI [48]: 5480 nM
- GI50 [49]: 157 nM
- TGI [49]: 6210 nM
- GI50 [50]: 371 nM
- TGI [50]: 2580 nM
- GI50 [51]: 2340 nM
- TGI [51]: 11600 nM
- GI50 [52]: 2630 nM
- TGI [52]: 13100 nM
- GI50 [53]: 205 nM
- TGI [53]: 10900 nM
- GI50 [54]: 390 nM
- TGI [54]: 5010 nM
- GI50 [55]: 605 nM
- TGI [55]: 3300 nM
- GI50 [56]: 1220 nM
- TGI [56]: 9650 nM
- GI50 [57]: 446 nM
- TGI [57]: 7730 nM
- GI50 [58]: 428 nM
- TGI [58]: 3500 nM
